Source: patent US10689622B2, “Culture medium for proliferating stem cell, which contains sulfated compound” (AJINOMOTO CO., INC., priority 2012, dated 2020)

Tests used:
bFGF [1] = target: T1, bFGF (Homo sapiens, UniProt P09038); test: Evaluation of bFGF stabilization in Lonza serum-free medium (ELISA); assay type: biochemical; conditions: for bFGF concentration relative to that of 4° C. control (ELISA): Lonza serum-free medium, 37° C. for 7 days; for effectiveness ELISA: effectiveness in ELISA evaluation of mesenchymal stem cells (medium), 4° C. control ratio
T1 construct: purchased Lonza (via TAKARA BIO INC.) Ser. No. 00/190,632
T1 sequence (P09038 143-288): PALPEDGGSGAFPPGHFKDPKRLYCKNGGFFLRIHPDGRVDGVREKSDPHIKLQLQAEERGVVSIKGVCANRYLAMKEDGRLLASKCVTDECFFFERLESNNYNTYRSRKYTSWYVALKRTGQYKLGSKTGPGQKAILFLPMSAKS
Description: (§1) A test compound was dissolved in phosphate buffered saline, and diluted 10-fold with a serum-free medium to adjust to the concentrations shown in Table 4 (test sample). The test sample was left standing in a tightly sealed Falcon tube at 37° C. for 7 days (Tables 5 to 8-2) or 3 days (Table 8-3), and the bFGF concentration was quantified by ELISA measurement. A phosphate buffered saline without a test compound was diluted 10-fold with a serum-free medium, and left standing at 37° C. or 4° C. for 7 days or 3 days, and used as a control.
(§2) A commercially available measurement kit (human bFGF ELISA kit, ELH-bFGF-001, Ray Biotech) was used for quantification of bFGF in the medium. The measurement procedures followed the protocol attached to the kit. The bFGF concentration of the serum-free medium was calculated from the analytical curve (conversion formula) drawn from the absorbance of an analytical curve standard solution. The evaluation criteria of Tables 5-8 are as follows:
as §1, with “Table 13” for “Table 4”, “7 days,” for “7 days (Tables 5 to 8-2) or 3 days (Table 8-3),”, “7” for “7 days or 3”
as §2, with “Table 13” for “Tables 5-8”, “follows: […]” for “follows:”

bFGF [2] = target: T1, bFGF; test: Evaluation of bFGF stabilization in Essential 8 medium (ELISA); assay type: biochemical; conditions: 37° C. for 7 days
Description: as §2
(§3) A test compound was dissolved in phosphate buffered saline, and diluted 10-fold with a serum-free medium to adjust the concentration shown in Table 4 (test sample). The test sample was left standing in a tightly sealed Falcon tube at 37° C. for 7 days, and the bFGF concentration was quantified by ELISA measurement. A phosphate buffered saline without a test compound was diluted 10-fold with Essential 8 medium or ReproFF2 medium, and left standing at 37° C. or 4° C. for 7 days, and used as a control.
as §2, with “Table 13” for “Tables 5-8”
as §3, with “Table 12” for “Table 4”

[3] = Measurement of content level of sulfur in test compound (ICP); assay type: physicochemical; conditions: ICPS-8100, evaluation samples containing 0.01 wt % test compound
Excerpt: (§4) The content level of sulfur in the sulfated saccharide is generally not less than 5 wt %, preferably not less than 10 wt %, more preferably not less than 15 wt %, and the upper limit is generally not more than 40 wt %, preferably not more than 35 wt %, more preferably not more than 30 wt %. […] Here, the content level of sulfur is a proportion in wt % of sulfur derived only from the sulfate group in sulfated saccharides, which can be measured by a method known in the field (e.g., rhodizonate method, elemental analysis or luminescent spectral analysis).
as §4, with “polymer” for “saccharide”, “wt” for “wt %, preferably not more than 35 wt %, more preferably not more than 30 wt”, “in” for “derived only from”, “the” for “the sulfate group in”, “polymer,” for “saccharides,”, “such as” for “(e.g.,”
The relationship between the content level of sulfur in a test compound (sulfur content) and the cell proliferation promoting effect was examined. The sulfur content was measured using ICPS-8100 manufactured by SHIMADZU CORPORATION and analyzed using ICPS-8000 series Ver1.03. As the reference standard of sulfur, the standard for ICP-MS manufactured by Accu Standard was used. Sulfur reference standard solutions (0, 1, 10, 30, 50 ppm) were prepared, and the sulfur content of the evaluation samples containing 0.01 wt % test compound was measured by an analytical curve method.

[4] = system: Human bone marrow-derived mesenchymal stem cells; test: Mesenchymal stem cell proliferation system (cell number by DNA quantification); conditions: growth of mesenchymal stem cell, control ratio
Description: Human bone marrow-derived mesenchymal stem cells (Lonza, Human Mesenchymal Stem Cell) cultured in mesenchymal stem cell-dedicated medium (Lonza, MSCGM) or Dulbecco's Modified Eagle Medium (Invitrogen, GIBCO D-MEM) containing inactivated fetal bovine serum (Invitrogen, GIBCO FBS) and penicillin-streptomycin (Sigma-Aldrich Co. LLC.) were cultured in exchanged Lonza serum-free medium. The mesenchymal stem cells thus-acclimated to serum-free culture were suspended in Lonza serum-free medium, and seeded on a 24 well culture plate (Nippon Becton Dickinson Company, Ltd., Falcon culture plate) at 20,000 cells/well or a 6 well culture plate (Nippon Becton Dickinson Company, Ltd., Falcon culture plate) at 50,000 cells/well. Then, a test compound solution after filter sterilization and adjustment to a given concentration was added, and the cells were cultured in an incubator (Thermo Scientific, Forma incubator) under the 5% CO2/37° C. conditions for 7 to 8 days. When the medium exchange was necessary, the medium was exchanged 2 to 3 days after the seeding. In this case, the test compound solution was also added again in the same manner as in seeding. In this case, various compound solutions were added again in the same manner as in seeding. After culturing for 7 to 8 days, the medium was removed and DNA quantification was performed. As a control, the cells were cultured in the same manner in a medium without a test compound and added with phosphate buffered saline.
The medium in the 24 well culture plate was removed, and the cells were washed with phosphate buffered saline. The sodium lauryl sulfate solution (500 μl/well) was added, and the mixture was left standing at 37° C. for 4 hours. The sodium lauryl sulfate solution (1.0 ml) was also added to a cell pellet with a known cell number, and the mixture was left standing at 37° C. for 4 hours. As for the cells in the 24 well culture plate, a part (50 μl) of the lysate was transferred to a 96 well black microplate. The solution used for treating the cell pellets was successively diluted with sodium lauryl sulfate solution and used as solutions for drawing an analytical curve. Also, a part (50 μl) of the solutions for drawing an analytical curve was each transferred to the 96 well black microplate. […] The fluorescence was measured by a microplate reader (excitation wavelength: 355 nm, measurement wavelength: 460 nm) within 5 minutes from the addition. The cell number of the 24 well cell culture plate was calculated from the analytical curve drawn (conversion formula). The evaluation criteria were as follows.

Compound	bFGF concentration relative to that of 4° C. control (ELISA) (bFGF [1]; test compound 25 ng/ml)	bFGF concentration relative to that of 4° C. control (ELISA) (bFGF [1]; test compound 250 ng/ml)	bFGF concentration relative to that of 4° C. control (ELISA) (bFGF [1]; test compound 25 μg/ml)	bFGF concentration relative to that of 4° C. control (ELISA) (bFGF [1]; test compound 250 μg/ml)	effectiveness ELISA (bFGF [1])	concentration showing a suppressive effect on a decrease in the bFGF concentration of the medium (bFGF [2])	bFGF concentration relative to that of 4° C. control (ELISA) (bFGF [2]; test compound 250 pg/ml)	bFGF concentration relative to that of 4° C. control (ELISA) (bFGF [2]; test compound 25 ng/ml)	bFGF concentration relative to that of 4° C. control (ELISA) (bFGF [2]; test compound 250 ng/ml)	bFGF concentration relative to that of 4° C. control (ELISA) (bFGF [2]; test compound 25 μg/ml)	bFGF concentration relative to that of 4° C. control (ELISA) (bFGF [2]; test compound 250 μg/ml)	sulfur content Found (inorganic analysis) [3] [wt %]	effectiveness cells [4]
glucose SO3Na	x (bFGF concentration was less than 10% relative to that of 4 °C control)	x (bFGF concentration was less than 10% relative to that of 4 °C control)	x (bFGF concentration was less than 10% relative to that of 4 °C control)	− (bFGF concentration was not less than 10% and less than 30% relative to that of 4 °C control)	+ (+ 30%<)	not less than 2.5 mg/ml	x (bFGF concentration was less than 10% relative to that of 4 °C control)	x (bFGF concentration was less than 10% relative to that of 4 °C control)	x (bFGF concentration was less than 10% relative to that of 4 °C control)	+++ (bFGF concentration was not less than 70% relative to that of 4 °C control)	+++ (bFGF concentration was not less than 70% relative to that of 4 °C control)	23	
α-cyclodextrin SO3Na [α-CD•SO3Na]	x (bFGF concentration was less than 10% relative to that of 4 °C control)	+ (bFGF concentration was not less than 30% and less than 50% relative to that of 4 °C control)	− (bFGF concentration was not less than 10% and less than 30% relative to that of 4 °C control)	+ (bFGF concentration was not less than 30% and less than 50% relative to that of 4 °C control)	++ (++ 50%<)	not less than 2.5 μg/ml	x (bFGF concentration was less than 10% relative to that of 4 °C control)	x (bFGF concentration was less than 10% relative to that of 4 °C control)	x (bFGF concentration was less than 10% relative to that of 4 °C control)	+++ (bFGF concentration was not less than 70% relative to that of 4 °C control)	+++ (bFGF concentration was not less than 70% relative to that of 4 °C control)	14	
O=S(=O)([O-])OC1C(OS(=O)(=O)[O-])C(OS(=O)(=O)[O-])C(OS(=O)(=O)[O-])C(OS(=O)(=O)[O-])C1OS(=O)(=O)[O-].[K+].[K+].[K+].[K+].[K+].[K+] (stereo not shown) [myo-inositol 6SO3K]	x (bFGF concentration was less than 10% relative to that of 4 °C control)	x (bFGF concentration was less than 10% relative to that of 4 °C control)	+ (bFGF concentration was not less than 30% and less than 50% relative to that of 4 °C control)	++ (bFGF concentration was not less than 50% and less than 70% relative to that of 4 °C control)	+++ (+++ 70%<)	not less than 25 μg/ml	x (bFGF concentration was less than 10% relative to that of 4 °C control)	x (bFGF concentration was less than 10% relative to that of 4 °C control)	x (bFGF concentration was less than 10% relative to that of 4 °C control)	+++ (bFGF concentration was not less than 70% relative to that of 4 °C control)	+++ (bFGF concentration was not less than 70% relative to that of 4 °C control)	19	
glycerol SO3Na	x (bFGF concentration was less than 10% relative to that of 4 °C control)	x (bFGF concentration was less than 10% relative to that of 4 °C control)	x (bFGF concentration was less than 10% relative to that of 4 °C control)	x (bFGF concentration was less than 10% relative to that of 4 °C control)	+ (+ 30%<)							23	
xylitol SO3Na	x (bFGF concentration was less than 10% relative to that of 4 °C control)	x (bFGF concentration was less than 10% relative to that of 4 °C control)	x (bFGF concentration was less than 10% relative to that of 4 °C control)	++ (bFGF concentration was not less than 50% and less than 70% relative to that of 4 °C control)	+++ (+++ 70%<)							25	◯ (◯ not leas than 100%)
stachyose SO3Na	x (bFGF concentration was less than 10% relative to that of 4 °C control)	− (bFGF concentration was not less than 10% and less than 30% relative to that of 4 °C control)	+++ (bFGF concentration was not less than 70% relative to that of 4 °C control)	+++ (bFGF concentration was not less than 70% relative to that of 4 °C control)	+++ (+++ 70%<)	not less than 250 μg/ml	x (bFGF concentration was less than 10% relative to that of 4 °C control)	x (bFGF concentration was less than 10% relative to that of 4 °C control)	x (bFGF concentration was less than 10% relative to that of 4 °C control)	x (bFGF concentration was less than 10% relative to that of 4 °C control)	++ (bFGF concentration was not less than 50% and less than 70% relative to that of 4 °C control)	18	
